pIC50: −log10 of the molar value. Read-outs that look alike come from different tables or passages of the source.
Columns and labels:
[1] = system: primary cortical neurons; test: Neurite outgrowth assay; format: cell-based, Sprague-Dawley rat; settings: Primary cortical neuron, rat primary cortical neurons, 72 hours
Description: Neurite outgrowth assay was performed by Fluofarma (Pessac, France). Primary cortical neurons were harvested from E19 Sprague-Dawley (Janvier Labs) rat embryos, dissociated and plated at 10,000 per well in a tissue-culture treated 96 well plate, in neuronal medium (SM2 matrix independent growth medium, Stem Cell Technologies). Neurons were followed by phase contrast imaging with 1 image acquired every 4 hours, using an Incucyte Zoom (Essen BioScience) with a 20x objective. Four fields per well were acquired. After 24 hours, cells were treated with test compounds and neurite outgrowth was followed for 72 hours post-treatment. All measures were performed in triplicate in one experiment.
Neurite outgrowth kinetics were analyzed from each phase contrast image using the Neurotrack module of the Incucyte Zoom platform. Neurite length and branch points were obtained for each time point. The area under the curve (AUC) was calculated in each experimental condition (GraphPad Prism 6, GraphPad Software).

[2] = system: tubulin; test: Fluorescence-based tubulin polymerization assay; format: biochemical; settings: purified tubulin, fluorescent reporter, vs DMSO control
Description: Tubulin polymerization in vitro was analyzed using the fluorescence-based tubulin polymerization assay (Cytoskeleton, Inc.), according to the manufacturer’s guidelines. Fluorescence was read on a SaFire II microplate reader (Tecan).

[3] = read-out: IC50 for branch point formation
[4] = read-out: IC50 for neurite length

For `CC[C@]1(O)C[C@H]2CN(CCc3c([nH]c4ccccc34)[C@@](C(=O)OC)(c3cc4c(cc3OC)N(C=O)[C@H]3[C@@](O)(C(=O)OC)[C@H](OC(C)=O)[C@]5(CC)C=CCN6CC[C@]43[C@@H]65)C2)C1` [vincristine, reference compound], the pIC50 [1, 3] was 9.70 and the pIC50 [1, 4] was 9.70.

For `CC[C@]1(O)C[C@@H]2CN(CCc3c([nH]c4ccccc34)[C@@](C(=O)OC)(c3cc4c(cc3OC)N(C)[C@H]3[C@@](O)(C(=O)OC)[C@H](OC(C)=O)[C@]5(CC)C=CCN6CC[C@]43[C@@H]65)C2)C1` [vinblastine, reference compound], the “effect on tubulin polymerization in vitro” value [2] was “marked decrease in final polymer formation”, the pIC50 [1, 3] was 9.15 and the pIC50 [1, 4] was 9.05.

— PMC11542830, “3-nitropyridine analogues as novel microtubule-targeting agents” (PLOS ONE, 2024)
